Experimental data: patent US20070128217A1 (priority 2003, published 2007)

Tests used:
[1] = system: antibodies in sera from SARS patients (sera 1a, 1b, 2, 6, 37, 62, London, SARS-yellow, SARS-green); assay type: binding, human; parameters: Binding of serum 6 to linear peptides of protein X1 of SARS-CoV Urbani / Binding of serum 37 to linear peptides of protein X1 of SARS-CoV Urbani / Binding of serum 6 to looped/cyclic peptide (PEPSCAN-ELISA) / Binding of serum 37 to looped/cyclic peptide (PEPSCAN-ELISA) / Binding of serum 37 to looped/cyclic peptides of protein X1 of SARS-CoV Urbani / Binding of serum 6 to linear peptides of protein X2 / Binding of serum 37 to linear peptides of protein X2 / Binding of serum 37 to looped/cyclic peptides of protein X2 of SARS-CoV Urbani / Binding of serum 6 to linear peptides of protein M of SARS-CoV Urbani / Binding of serum 37 to linear peptides of protein M of SARS-CoV Urbani / Binding of serum 6 to looped/cyclic peptides of protein M of SARS-CoV Urbani / Binding of serum 37 to looped/cyclic peptides of protein M of SARS-CoV Urbani / Binding of serum 6 to linear peptides of protein X3 of SARS-CoV Urbani / Binding of serum 37 to linear peptides of protein X3 of SARS-CoV Urbani / Binding of serum 37 to looped/cyclic peptides of protein X3 of SARS-CoV Urbani / Binding of serum 6 to linear peptides of protein X4 of SARS-CoV Urbani / Binding of serum 37 to linear peptides of protein X4 of SARS-CoV Urbani / Binding of serum 37 to looped/cyclic peptides of protein X4 of SARS-CoV Urbani / Binding of serum 6 to linear peptides of protein X5 of SARS-CoV Urbani / Binding of serum 37 to linear peptides of protein X5 of SARS-CoV Urbani / Binding of serum 37 to looped/cyclic peptides of protein X5 of SARS-CoV Urbani / Binding of serum 6 to linear peptides of protein N of SARS-CoV Urbani / Binding of serum 37 to linear peptides of protein N of SARS-CoV Urbani / Binding of serum 6 to linear peptide (PEPSCAN-ELISA) / Binding of serum 1a to looped/cyclic peptides of protein N of SARS-CoV Urbani / Binding of serum 1b to looped/cyclic peptides of protein N of SARS-CoV Urbani / Binding of serum 2 to looped/cyclic peptides of protein N of SARS-CoV Urbani / Binding of serum 6 to looped/cyclic peptides of protein N of SARS-CoV Urbani / Binding of serum 37 to looped/cyclic peptides of protein N of SARS-CoV Urbani / Binding of serum 62 to looped/cyclic peptides of protein N of SARS-CoV Urbani / Binding of serum London to looped/cyclic peptides of protein N of SARS-CoV Urbani / Binding of serum SARS-green to looped/cyclic peptides of protein N of SARS-CoV Urbani: unit not given here
[2] = system: control sera (pooled serum of ten healthy LUMC hospital workers; commercial negative donor pooled serum from the Dutch bloodbank); assay type: binding, human; parameters: Binding of Control serum LUMC to linear peptides / Binding of Control serum Blood-bank to linear peptides / Binding of Control serum LUMC to looped peptides / Binding of Control Serum Blood-Bank to Looped peptides / Binding of Control serum LUMC to linear peptides of the protein M of SARS-CoV Urbani / Binding of Control serum Blood-bank to linear peptides of the protein M of SARS-CoV Urbani / Binding of Control serum LUMC to looped peptides of the protein M of SARS-CoV Urbani / Binding of Control Serum Blood-Bank to Looped peptides of the protein M of SARS-CoV Urbani: unit not given here
[3] = system: rabbit serum obtained by immunizing a rabbit with the SARS-CoV strain Frankfurt 1; assay type: binding; parameters: Binding of a rabbit serum to linear peptides / Binding of a rabbit serum to looped peptides / Rabbit serum linear peptides / Rabbit serum looped peptides / Binding of a rabbit serum to linear peptides of protein N of SARS-CoV Urbani (Rabbit serum linear peptides) / Binding of a rabbit serum to looped/cyclic peptides of protein N of SARS-CoV Urbani (Rabbit serum looped peptides): unit not given here
[4] = system: recombinant human anti-SARS-CoV antibody 03-018; assay type: binding; parameters: Binding of antibody 03-018 to linear peptides of the N protein of SARS-CoV Urbani / Binding of antibody 03-018 to looped/cyclic peptides of the N protein of SARS-CoV Urbani: unit not given here

Row | Sequence | Binding of serum 1a to linear peptides of protein N of SARS-CoV Urbani [1] | Binding of serum 1a to looped/cyclic peptides of protein N of SARS-CoV Urbani [1] | Binding of serum 1b to linear peptides of protein N of SARS-CoV Urbani [1] | Binding of serum 1b to looped/cyclic peptides of protein N of SARS-CoV Urbani [1] | Binding of serum 2 to linear peptides of protein N of SARS-CoV Urbani [1] | Binding of serum 2 to looped/cyclic peptides of protein N of SARS-CoV Urbani [1] | Binding of serum 6 to linear peptides of protein N of SARS-CoV Urbani [1] | Binding of serum 6 to looped/cyclic peptides of protein N of SARS-CoV Urbani [1] | Binding of serum 37 to linear peptides of protein N of SARS-CoV Urbani [1] | Binding of serum 37 to looped/cyclic peptides of protein N of SARS-CoV Urbani [1] | Binding of serum 62 to linear peptides of protein N of SARS-CoV Urbani [1] | Binding of serum 62 to looped/cyclic peptides of protein N of SARS-CoV Urbani [1] | Binding of serum London to linear peptides of protein N of SARS-CoV Urbani [1] | Binding of serum London to looped/cyclic peptides of protein N of SARS-CoV Urbani [1] | Binding of serum SARS-green to linear peptides of protein N of SARS-CoV Urbani [1] | Binding of serum SARS-green to looped/cyclic peptides of protein N of SARS-CoV Urbani [1] | Binding of serum SARS-yellow to linear peptides of protein N of SARS-CoV Urbani [1] | Binding of serum SARS-yellow to looped/cyclic peptides of protein N of SARS-CoV Urbani [1] | Binding of a rabbit serum to linear peptides of protein N of SARS-CoV Urbani (Rabbit serum linear peptides) [3] | Binding of a rabbit serum to looped/cyclic peptides of protein N of SARS-CoV Urbani (Rabbit serum looped peptides) [3] | other results
1 | DGKMKELSPRWYFYY | 0.2 | 0.4 | 0.1 | 0.3 | 0.2 | 0.5 | 0.1 | 0.4 | 0.5 | 0.8 | 0.5 | 0.7 | 0.4 | 0.5 | 0.4 | 0.4 | 0.5 | 0.5 | 0.1 | 0.6 | Binding of Control Serum Blood-Bank to Looped peptides [2]: 0.8; Binding of Control serum Blood-bank to linear peptides [2]: 0.8; Binding of Control serum LUMC to linear peptides [2]: 0.6; Binding of Control serum LUMC to looped peptides [2]: 0.7; Binding of antibody 03-018 to linear peptides of the N protein of SARS-CoV Urbani [4]: 0.1; Binding of antibody 03-018 to looped/cyclic peptides of the N protein of SARS-CoV Urbani [4]: 0.2
2 | DHIGTRNPNNNAATV | 0.3 | 0.5 | 0.1 | 0.4 | 0.3 | 0.8 | 0.2 | 0.5 | 0.7 | 1.1 | 0.7 | 0.8 | 0.5 | 0.7 | 0.5 | 0.5 | 0.7 | 0.6 | 0.1 | 0.5 | Binding of Control Serum Blood-Bank to Looped peptides [2]: 0.9; Binding of Control serum Blood-bank to linear peptides [2]: 0.8; Binding of Control serum LUMC to linear peptides [2]: 0.7; Binding of Control serum LUMC to looped peptides [2]: 1.0; Binding of antibody 03-018 to linear peptides of the N protein of SARS-CoV Urbani [4]: 0.1; Binding of antibody 03-018 to looped/cyclic peptides of the N protein of SARS-CoV Urbani [4]: 0.3
3 | DKKKKTDEAQPLPQR | 0.2 | 0.2 | 0.1 | 0.1 | 0.2 | 0.2 | 0.2 | 0.1 | 0.6 | 0.4 | 0.6 | 0.3 | 0.5 | 0.3 | 0.5 | 0.3 | 0.6 | 0.3 | 0.1 | 0.3 | Control Serum Blood-Bank Looped peptides [2]: 0.5; Control serum Blood-bank linear peptides [2]: 0.8; Control serum LUMC linear peptides [2]: 0.6; Control serum LUMC looped peptides [2]: 0.4; Binding of antibody 03-018 to linear peptides of the N protein of SARS-CoV Urbani [4]: 0.1; Binding of antibody 03-018 to looped/cyclic peptides of the N protein of SARS-CoV Urbani [4]: 0.2
4 | DMDDFSRQLQNSMSG | 0.2 | 0.3 | 0.2 | 0.1 | 0.2 | 0.3 | 0.3 | 0.0 | 0.8 | 0.4 | 0.7 | 0.2 | 0.7 | 0.2 | 0.3 | 0.0 | 0.7 | 0.2 | 0.2 | 0.4 | Control Serum Blood-Bank Looped peptides [2]: 0.4; Control serum Blood-bank linear peptides [2]: 0.8; Control serum LUMC linear peptides [2]: 0.6; Control serum LUMC looped peptides [2]: 0.3; Binding of antibody 03-018 to linear peptides of the N protein of SARS-CoV Urbani [4]: 0.1; Binding of antibody 03-018 to looped/cyclic peptides of the N protein of SARS-CoV Urbani [4]: 0.2
